≈ marks a conversion by molar mass, not a printed value.

The term MIC denotes the lowest concentration found to suppress growth. A high value points to a need for much substance.

For one test, the system named is S. parauberis. Briefly: MIC measurement of S. parauberis strains for quinolone antibiotic. Type of test: cell-based. Particulars: Streptococcus parauberis. As to the method: (§1) Using S. parauberis, E. tarda, and V. harveyi samples stored in the National Institute of Fisheries Science, MIC values were measured.
A further test concerns E. tarda. Briefly: MIC measurement of E. tarda strains for quinolone antibiotics. In kind it is cell-based. Particulars: Edwardsiella tarda. As to the method: as §1
A further test concerns V. harveyi. Description: MIC measurement of V. harveyi strains for quinolone antibiotics. In kind it is cell-based, Vibrio harveyi. Particulars: for MIC: Vibrio harveyi. As to the method: as §1
Where [1] appears, read: E. tarda strain FP2074, gyrA Arg83.
[2] abbreviates: E. tarda strain FP2130, gyrA Arg83.
Setting [3] is: E. tarda strain FP2240, gyrA Ser83.
Where [4] appears, read: E. tarda strain FP2243, gyrA Arg83.
[5] abbreviates: E. tarda strain FP3071, gyrA Arg83.
Setting [6] is: E. tarda strain FP3139, gyrA Ile83.
Where [7] appears, read: E. tarda strain FPa4445, gyrA Arg83.
The mark [8] stands for this setting: V. harveyi strain FP4541, gyrA Ile83.
Setting [9] is: V. harveyi strain FP3023, gyrA Ser83.
[10] abbreviates: V. harveyi strain FP3031, gyrA Ser83.
Setting [11] is: V. harveyi strain FP3457, gyrA Ser83.
Where [12] appears, read: V. harveyi strain FP7021, gyrA Ser83.
[13] abbreviates: V. harveyi strain FP8045, gyrA Ser83.

Take `O=C(O)c1cn(C2CC2)c2cc(N3CCNCC3)c(F)cc2c1=O` [Cipfloxacin, ciprofloxacin]: the MIC with S. parauberis (S. parauberis strain FP3059, gyrA Ser81) was found to be 0.13 µg/mL (≈ 0.392 µM); with S. parauberis (S. parauberis strain FP3227, gyrA Ser81), 1 µg/mL (≈ 3.02 µM); against S. parauberis (S. parauberis strain FP4029, gyrA Ser81) it was 0.5 µg/mL (≈ 1.51 µM); with S. parauberis (S. parauberis strain FP4031, gyrA Ser81), 0.25 µg/mL (≈ 0.754 µM); against S. parauberis (S. parauberis strain FP5227, gyrA Ser81), 0.06 µg/mL (≈ 0.181 µM); against S. parauberis (S. parauberis strain FPa4533, gyrA Leu81) it was 2 µg/mL (≈ 6.04 µM). Also, the minimal inhibitory concentration (MIC) against E. tarda (setting [1]) is 0.13 µg/mL (≈ 0.392 µM); against E. tarda (setting [2]) it was 1 µg/mL (≈ 3.02 µM); in the test on E. tarda (setting [3]) it was under 0.06 µg/mL; in the test on E. tarda (setting [4]), 0.5 µg/mL (≈ 1.51 µM); in the test with E. tarda (setting [5]) it was 0.25 µg/mL (≈ 0.754 µM); with E. tarda (setting [6]), 4 µg/mL (≈ 12.1 µM). Moreover, in the test with E. tarda (setting [7]), the minimal inhibitory concentration (MIC) was 2 µg/mL (≈ 6.04 µM).

Regarding `CC1CCc2cc(F)cc3c(=O)c(C(=O)O)cn1c23` (centres unmarked) [Flumequine], the MIC was 8 µg/mL (≈ 30.6 µM) with E. tarda (setting [1]); 64 µg/mL (≈ 245 µM) in the test with E. tarda (setting [2]); 1 µg/mL (≈ 3.83 µM) in the test on E. tarda (setting [3]); 32 µg/mL (≈ 122 µM) against E. tarda (setting [4]); 16 µg/mL (≈ 61.2 µM) against E. tarda (setting [5]); at least 512 µg/mL in the test with E. tarda (setting [6]). The MIC in the test on E. tarda (setting [7]) is 32 µg/mL (≈ 122 µM); against V. harveyi (setting [9]) it was 1 µg/mL (≈ 3.83 µM); against V. harveyi (setting [10]) it was 2 µg/mL (≈ 7.66 µM); in the test with V. harveyi (setting [11]), 2 µg/mL (≈ 7.66 µM); against V. harveyi (setting [8]), 16 µg/mL (≈ 61.2 µM); against V. harveyi (setting [12]), 1 µg/mL (≈ 3.83 µM). This compound also gave a minimum inhibitory concentration (MIC) against V. harveyi (setting [13]) of 2 µg/mL (≈ 7.66 µM). The “susceptibility of the strain to the antibiotic, in words” value with V. harveyi (setting [8]) is “resistance”.

For `CCn1cc(C(=O)O)c(=O)c2cc3c(cc21)OCO3` [Oxolinic acid], the minimum inhibitory concentration (MIC) against E. tarda (setting [1]) was 4 µg/mL (≈ 15.3 µM); with E. tarda (setting [2]), 64 µg/mL (≈ 245 µM); against E. tarda (setting [3]), under 0.25 µg/mL; against E. tarda (setting [4]) it was 16 µg/mL (≈ 61.2 µM); in the test with E. tarda (setting [5]) it was 8 µg/mL (≈ 30.6 µM); in the test on E. tarda (setting [6]), 256 µg/mL (≈ 980 µM). Besides, the MIC turned out to be 8 µg/mL (≈ 30.6 µM) against E. tarda (setting [7]); 1 µg/mL (≈ 3.83 µM) against V. harveyi (setting [9]); 1 µg/mL (≈ 3.83 µM) against V. harveyi (setting [10]); 2 µg/mL (≈ 7.66 µM) against V. harveyi (setting [11]); 8 µg/mL (≈ 30.6 µM) in the test on V. harveyi (setting [8]); 1 µg/mL (≈ 3.83 µM) with V. harveyi (setting [12]). In addition, in the test with V. harveyi (setting [13]), the minimum inhibitory concentration (MIC) is 1 µg/mL (≈ 3.83 µM). For the same compound, in the test with V. harveyi (setting [8]), the “susceptibility of the strain to the antibiotic, in words” value is reported as “resistance”.

These data come from patent US20190177771A1, “PNA PROBE FOR DISCRIMINATION OF QUINOLONE ANTIBIOTIC RESISTANT BACTERIA AND METHOD FOR DISCRIMINATION OF ANTIBIOTIC RESISTANT BACTERIA USING THE SAME” (priority 2017, published 2019).
